Measured values taken from article PMC4704819, “Honey Bee Allatostatins Target Galanin/Somatostatin-Like Receptors and Modulate Learning: A Conserved Function?” (PLoS ONE, 2016).
*1 amine or outer side, *2 acyl side, *3 side chain or, on linkers, in order; H or OH if unused. Where a SMILES comes first, the peptide text is derived from it. Where no end group is shown, it is not given here. Side-chain parts run from the residue outwards. [ ]: non-standard residue; d: D form. The star is where a group is joined. Ethylenediamine = C(CN[*:2])N[*:1]; Hyp = O=C(O)[C@@H]1C[C@@H](O)CN1; Phg = N[C@H](C(=O)O)c1ccccc1; CO = O=C([*:1])[*:2]; Bn = c1ccc(C*)cc1

Experiments:
Apime-ASTA-R [1] = biological target: T1, Apime-ASTA-R (Apis mellifera, UniProt A0A7M7ILT1); assay: Intracellular cAMP reporter assay, HEK293 cells expressing Apime-ASTA-R; assay type: cell-based
T1 sequence (A0A7M7ILT1 1-361): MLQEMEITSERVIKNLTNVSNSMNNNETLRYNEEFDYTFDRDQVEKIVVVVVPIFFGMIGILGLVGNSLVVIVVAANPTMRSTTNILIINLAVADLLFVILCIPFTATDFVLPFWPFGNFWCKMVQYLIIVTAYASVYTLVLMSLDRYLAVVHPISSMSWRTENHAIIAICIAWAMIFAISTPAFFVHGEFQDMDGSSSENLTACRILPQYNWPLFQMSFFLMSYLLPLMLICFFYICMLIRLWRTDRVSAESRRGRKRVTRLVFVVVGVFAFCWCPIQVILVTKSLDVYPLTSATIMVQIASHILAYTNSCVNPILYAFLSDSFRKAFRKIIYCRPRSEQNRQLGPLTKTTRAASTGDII
Experimental: (§1) For intracellular cAMP measurements, cells were bathed in trypsin EDTA and collected, then suspended in fresh DMEM. Transfections with pRK5-ApimeAstC-R, pRK5-ApimeAstA-R or empty pRK5 vector were carried out in 15 ml Falcon tubes. Transfection medium for HEK293 cells was prepared using the Lipofectamine LTX kit (Invitrogen) with 2.5 ml Opti-MEM® (Gibco), 12.5 μl Plus™ Reagent and 4 μg of ApimeASTC-R (or ApimeASTA-R, or empty) expression construct, and 2 μg of CRE(6x)-Luc plasmid. The luciferase ORF, downstream of six tandem repeats of a cyclic AMP responsive element (CRE), in front of a minimum collate promoter, was used as a reporter gene (this reporter plasmid has been used by others)
We followed a previousy published protocol: HEK293 cells in Dulbecco's Modified Eagles Medium nutrient mixture F12-Ham (DMEM/F12, Sigma–Aldrich) supplemented with 10% heat-inactivated fetal bovine serum (Gibco), 100 IU/ml penicillin, 100 μg/ml streptomycin (Gibco) were maintained in an incubator at 37°C with constant supply of 5% CO2, until they reached 60–80% confluence. Cells were then bathed in trypsin EDTA (Gibco) until rounded. The flask was then tapped to loosen the cells, which were subsequently washed off with 5 ml DMEM/F12. […]
Prior to measuring cAMP, the cell medium was removed by carefully inverting the 96-well plate on filter paper and quickly replaced with 100 μl of DMEM/F12 without phenol red (Invitrogen), but containing 200 μM 3-isobutyl-1-methylxanthine (IBMX, Sigma–Aldrich) to prevent cAMP breakdown, as well as drugs to be tested. […] The 96-well plate was then placed in the dark for 15 min before light emission resulting from luciferase enzymatic activity was recorded. Measurements lasting 0.2 s/well were taken every 55 s for 10 cycles using a FLUOstar Omega microplate reader (BMG Labtech). Results were analyzed by means of the Omega software packages and further processed by Excel and GraphPad Prism softwares. […]

Apime-ASTC-R [2] = biological target: T2, Apime-ASTC-R (Apis mellifera, UniProt A0A7M7GNE5); assay: Intracellular cAMP reporter assay, HEK293 cells expressing Apime-ASTC-R; assay type: cell-based; settings: Fig 5B, 2 transfections in duplicates or triplicates
T2 sequence (A0A7M7GNE5 1-423): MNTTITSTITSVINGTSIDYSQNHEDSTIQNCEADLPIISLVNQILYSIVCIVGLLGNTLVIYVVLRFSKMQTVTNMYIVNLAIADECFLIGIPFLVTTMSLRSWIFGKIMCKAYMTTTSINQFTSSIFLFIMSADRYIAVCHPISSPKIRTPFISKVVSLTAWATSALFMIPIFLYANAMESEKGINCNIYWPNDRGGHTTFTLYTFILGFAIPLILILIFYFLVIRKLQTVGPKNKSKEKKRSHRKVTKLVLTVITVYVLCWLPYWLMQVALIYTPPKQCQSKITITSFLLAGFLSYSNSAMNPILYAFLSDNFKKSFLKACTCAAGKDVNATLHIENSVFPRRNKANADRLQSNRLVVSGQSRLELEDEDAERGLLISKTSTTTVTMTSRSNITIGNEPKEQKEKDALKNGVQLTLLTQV
Experimental: as §1
(§2) We followed a previousy published protocol: HEK293 cells in Dulbecco's Modified Eagles Medium nutrient mixture F12-Ham (DMEM/F12, Sigma–Aldrich) supplemented with 10% heat-inactivated fetal bovine serum (Gibco), 100 IU/ml penicillin, 100 μg/ml streptomycin (Gibco) were maintained in an incubator at 37°C with constant supply of 5% CO2, until they reached 60–80% confluence. Cells were then bathed in trypsin EDTA (Gibco) until rounded. The flask was then tapped to loosen the cells, which were subsequently washed off with 5 ml DMEM/F12. The cells were gently centrifuged at 800 rpm for 5 minutes and carefully suspended in fresh DMEM, which was divided in two for transfection with receptor constructs or empty vectors. After 5 min at room temperature, 30 μl LTX was added. After an incubation period of 30 min at room temperature, the DNA/LTX mix was added to the cells. The cells were then aliquoted (100 μl per well) into a clear bottom 96-well plate (Greiner bio-one #655090) and incubated overnight (37°C, 5% CO2).
(§3) Prior to measuring cAMP, the cell medium was removed by carefully inverting the 96-well plate on filter paper and quickly replaced with 100 μl of DMEM/F12 without phenol red (Invitrogen), but containing 200 μM 3-isobutyl-1-methylxanthine (IBMX, Sigma–Aldrich) to prevent cAMP breakdown, as well as drugs to be tested. In each experiment, some wells were used to measure basal levels of cAMP in the cells (negative control), while others were used to measure cAMP levels in cells exposed to 10 μM forskolin analogue (NKH-477, Sigma Aldrich, positive control). […] All cells were incubated at 37°C and 5% CO2 for 3–4 h to allow transcription of the reporter gene before 100 μl of freshly reconstituted Steadylite Plus™ substrate (PerkinElmer) was added to each well. The 96-well plate was then placed in the dark for 15 min before light emission resulting from luciferase enzymatic activity was recorded. Measurements lasting 0.2 s/well were taken every 55 s for 10 cycles using a FLUOstar Omega microplate reader (BMG Labtech). Results were analyzed by means of the Omega software packages and further processed by Excel and GraphPad Prism softwares. In order to facilitate comparisons across experiments, bioluminescence levels are expressed relative to those in mock-transfected cells (transfected with the vector devoid of the receptor sequence) untreated with NKH-477, which were arbitrarily set at 100.
(§4) To test this prediction, we expressed the two receptors separately in HEK293 cells together with the luciferase reporter gene, downstream of the cAMP response element, CRE, but without exogenous G proteins.

[3] = test system: mock-transfected HEK293 cells; assay: Intracellular cAMP reporter assay, mock-transfected HEK293 cells (empty vector); assay type: cell-based, human
Experimental: as §1, §2, §3, §4

Apime-ASTA-R [4] = biological target: T1, Apime-ASTA-R; assay: Intracellular calcium measurement, HEK293 cells expressing Apime-ASTA-R with Gαqi9 chimeric G protein; assay type: cell-based
Experimental: (§5) This vector contains an ATG initiation codon in phase with a mammalian signal peptide sequence of metabotropic glutamate receptor 5 to address receptor protein to the cell membrane, with a hemagglutinin sequence (TAG HA), and MluI and HindIII restriction sites used for cloning. The coding regions of the genes of interest were PCR amplified from cDNA template. After extraction from whole brains, 1 μg of total RNA was reverse-transcribed with random primers. […] PCR reactions included: 30s at 98°C, then 30 cycles of 10s at 98°C, 30s at 60°C, 1 min at 72°C and finally, 5 minutes at 72°C. Cloning required several amplification and digestion steps to insert the full cDNA sequences in the vector.
In all cases, 2 μg of plasmid DNA encoding the Gαqi9 chimeric G protein was included to enable artificial coupling of the receptors to phospholipase C. Electroporation (250 V, 800 μF, Biorad GenePulser X-cell) was performed in a total volume of 300 μl of electroporation buffer (50 mM K2HPO4, 20 mM CH3COOK, 20 mM KOH, 26.5 mM MgSO4, pH 7.4). After electroporation, cells were resuspended in 10 ml of culture medium and split (100 μl/well) into polyornithine-coated (Sigma #P3655), black-walled, clear bottom 96-well plates (Greiner bio-one #655090) and grown for a further 48 h prior to analyzing receptor properties. All products used for cell culture were purchased from Invitrogen Life Technologies.
Cells were washed with freshly prepared 20 mM Hepes, 1 mM MgSO4, 3.3 mM Na2CO3, 1.3 mM CaCl2, 0.1% BSA, 2.5 mM probenecid in 1X Hank's balanced salt solution (Gibco #14185), pH7.4 buffer and loaded with 1 μM Ca^2+-sensitive fluorescent dye Fluo-4 AM (Invitrogen # F14202) for 1 h at 37°C. Cells were washed once and incubated with 50 μl of buffer. A plate was prepared with the various concentrations of peptides to be tested, and 50 μl of 2X concentrated-drug solution was added in each well after 20 s of recording. Fluorescence signals (excitation 485 nm, emission 525 nm) were measured by using the fluorescence microplate reader Flexstation (Molecular Devices) at sampling intervals of 1.5 s for 60 s. All represented data correspond to means ± standard deviation (SD) from experiments performed in triplicate.
This method allows detecting ligand-induced activation of the receptor by measuring the release of intracellular calcium.

Apime-ASTC-R [5] = biological target: T2, Apime-ASTC-R; assay: Intracellular calcium measurement, HEK293 cells expressing Apime-ASTC-R with Gαqi9 chimeric G protein; assay type: cell-based; settings: concentrations up to 0.1mM; data not shown
Experimental: as §5
In all cases, 2 μg of plasmid DNA encoding the Gαqi9 chimeric G protein was included to enable artificial coupling of the receptors to phospholipase C. […]
Cells were washed with freshly prepared 20 mM Hepes, 1 mM MgSO4, 3.3 mM Na2CO3, 1.3 mM CaCl2, 0.1% BSA, 2.5 mM probenecid in 1X Hank's balanced salt solution (Gibco #14185), pH7.4 buffer and loaded with 1 μM Ca^2+-sensitive fluorescent dye Fluo-4 AM (Invitrogen # F14202) for 1 h at 37°C. […] Fluorescence signals (excitation 485 nm, emission 525 nm) were measured by using the fluorescence microplate reader Flexstation (Molecular Devices) at sampling intervals of 1.5 s for 60 s. […]

## C=C[C@@]1(C)CC(=O)[C@]2(O)[C@@]3(C)[C@@H](O)CCC(C)(C)[C@@H]3[C@H](OC(=O)CCN(C)C)[C@H](OC(C)=O)[C@@]2(C)O1.Cl [NKH-477, reference compound]
Apime-ASTA-R [1]; Fig 5B, 2 transfections in duplicates or triplicates
  ability to increase bioluminescence versus mock-transfected cells, in words: reduced ability to increase bioluminescence levels
Apime-ASTA-R [1]; same concentrations as in mock cells (10 nM to 10 μM), CRE-luciferase, IBMX, Fig 5B, 2 transfections in duplicates or triplicates
  increase in cAMP levels (bioluminescence): 1.59 fold
Apime-ASTC-R [2]
  ability to increase bioluminescence versus mock-transfected cells, in words: reduced ability to increase bioluminescence levels
Apime-ASTC-R [2]; same concentrations as in mock cells (10 nM to 10 μM), CRE-luciferase, IBMX
  increase in cAMP levels (bioluminescence): 1.24 fold
[3]; 10 nM to 10 μM
  increase in bioluminescence (cAMP), in words: increased bioluminescence in a dose-dependent manner
[3]; 10 μM, CRE-luciferase, 200 μM IBMX, Fig 5B, 2 transfections in duplicates or triplicates
  increase in bioluminescence (cAMP) compared to baseline: 2.5 fold

## GRQPYSFGL-NH2 [Apime-ASTA]
Apime-ASTA-R [4]; HEK293, Gαqi9, Fluo-4 AM, Flexstation (ex 485 nm, em 525 nm), pH 7.4, experiments in triplicate, read-out: EC50, calcium release
  EC50: 1.99 nM
Apime-ASTA-R [1]; CRE-luciferase, 200 μM IBMX, no exogenous G protein, 37°C 3–4 h, normalized to mock-transfected cells, 3 independent transfections in triplicate, Fig 5C, read-out: mean EC50, increase in cAMP levels
  EC50: 103 nM

## NCCCC[C@@H]1NC(=O)[C@@H](Cc2c[nH]c3ccccc23)NC(=O)[C@H](c2ccccc2)NC(=O)[C@@H]2C[C@@H](OC(=O)NCCN)CN2C(=O)[C@H](Cc2ccccc2)NC(=O)[C@H](Cc2ccc(OCc3ccccc3)cc2)NC1=O [SOM230, reference compound] (cyclo([Hyp]([CO-Ethylenediamine])[Phg][dW]KY(Bn)F); ring closure inferred)
Apime-ASTA-R [4]; concentrations up to 0.1mM, data not shown
  calcium release: No calcium release was detected
Apime-ASTC-R [5]
  calcium release: No calcium release was detected
